Where two headings read alike, the source gives them in different places. Bridge positions count the residues as written; N and C are the ends. Square brackets hold non-standard residues; d marks the D form. Ends that are not written are not given here. Peptide text beside a SMILES is read from it. * marks the point of attachment. Butanoyl(4-pyren-1-yl) = O=C(CCCc1ccc2ccc3cccc4ccc1c2c34)*; NMeL = CN[C@@H](CC(C)C)C(=O)O
Assays:
[1] = target: T1, human MAdCAM-1 (huMAdCAM-1-Ig chimera); RPMI 8866 cells expressing α4β7 (Homo sapiens, UniProt P13612+P26010); test: huMAdCAM-1-Ig/RPMI 8866 Adhesion Assay; format: cell-based; conditions: read-out: hMAdCAM IC50, Table 7, R1-Leu-Asp-Thr-R2
T1 construct: RPMI 8866 cells, a B cell lymphoma expressing α4β7; endogenous in cells; host or cells: RPMI 8866 cells (endogenous α4β7)
Procedure: RPMI 8866 cells, a B cell lymphoma expressing α4β7 (a gift from D. Erle; Erle, D. J. et al., J. Immunol., 153:517-528 (1994); Shyjan et al., Journal of Immunology, 1996:2851 (1996) were fluorescently labeled (labeling protocol provided below) using BCECF (Molecular probes #B-1170). Cells were resuspended in an assay buffer consisting of Hanks Balanced Salt Solution (HBSS) supplemented with fetal calf serum (FCS) at a final concentration of 2%, HEPES, pH 7.3 at 25 mM. All reagents in this buffer were supplied from Gibco/BRL.
All assays were performed in 96 well strip well plates from Costar (E.I.A./R.I.A. Strip plate-8 Cat. #2581). […] The plates were incubated at 37° C. for one hour (or at 4° C. overnight) and washed once in the automatic plate washer (50 mM Tris HCl, 0.14 M NaCl and 2.0 mM MnCl2 at pH 7.2) (Bio-Tek EL 404 microplate autowasher). Wells were then blocked with PBS (phosphate buffered saline) and 10% FCS (100 μl/well) for one hour at 37° C. followed by the same wash step as described.
Cells were labeled with BCECF-AM (Molecular Probes, Cat. No. B-1170) at a concentration of 2 μl/ml to a cell suspension of 4×10^6 cells/ml in PBS. The cells were incubated in a 37° C. water bath for 30 minutes. Labeled cells were centrifuged at 700 RPM for 10 minutes, resuspended in assay buffer and the centrifugation step was repeated. The cells were resuspended at a final concentration of 2.5×10^6 cells/ml.
For assays, compounds were diluted as follows in a 96 well polypropylene plate. First, a stock solution of each compound was prepared by dissolving compound in 100% DMSO at 100X final concentration to be tested. 10 μl of the stock was added to 90 μl water for the first test dilution. 50 μl of the first test dilution was added to 50 μl of 10% DMSO in water for the second test dilution. 50 μl of the second test dilution was added to 50 μl of 10% DMSO in water for the third test dilution. 50 μof the third test dilution was added to 50 μl of 10% DMSO in water for the fourth test dilution, and so on, until six test dilutions were prepared.
A stock solution of SmM positive control peptide (L783-1A) was made in 100% DMSO, and subsequently diluted in water 1:10 (10 μl of 5 mM stock plus 90 μl of water) to yield a concentration of 0.5mM. This dilution was then further diluted 1:2 with 10% DMSO (50 μl of the compound and 50 μl of 10% DMSO) for a concentration of 250 μM. These 1:2 dilutions were continued serially until six dilutions were achieved. These dilutions represent 10X stocks as shown in the assay set up below:
The assay was set up by adding materials to huMAdCAM-1-Ig-coated plates as follows:
1) 130 μl/well of assay buffer
2) 20 μl/well of diluted compounds or 10% DMSO (control) or diluted positive control peptide.
3) 50 μl of ECECF-AM-labeled RPMI 8866 cells
The plates were wrapped in foil and incubated for 30 minutes at room temperature on a rotary shaker at 45 RPM.
Plates were washed twice (50 mM Tris HCl, […] and 2.0 mM MnCl2 at pH 7.2) on the microplate autowasher plate washer set as follows:
Plates were read in an IDEX fluoresecent plate reader set to excite at 485 nm and read at 535 nm.
Data was collected in microsoft excel in a format for automatic IC 50 determinations.

[2] = target: T2, murine MAdCAM-1 (MAdCAM-1/mCk fusion protein); α4β7-bearing HUT 78 cells (Homo sapiens, UniProt P13612+P26010); test: Adhesion of HUT 78 cells to MAdCAM-1/mCk fusion protein bound via capture antibody; format: cell-based; conditions: for IC50: HUT 78 cell adhesion to MAdCAM-1/mCk, average of two determinations; for % Adhesion Inhibition 500 μM: 500 μM compound
T2 construct: host or cells: HUT 78 cells (endogenous α4β7); The MAdCAM-1/mCk partner was made in house in baculovirus-infected Sf9 insect cells, used as neat supernatant and captured by rat anti-mCk antibody
Procedure: The compounds of the present invention were evaluated for their biological properties.
A soluble fusion protein comprising murine MAdCAM-1 was produced in a baculovirus expression system and used in the adhesion assay. A fusion gene in which sequences encoding the signal peptide and extracellular domain of murine MAdCAM-1 were fused to sequences encoding a constant region of the murine kappa light chain (mCk) was constructed, and cloned into a baculovirus shuttle vector. Fusion protein produced from the resulting construct contained the integrin binding sequences of murine MAdCAM-1 at the amino-terminus, and the mCk sequence at the carboxy-terminus. Recombinant baculovirus encoding the fusion protein was harvested from infected Sf9 insect cells.
Human T-cell lymphoma cells (HUT 78 cells) activated with Mn^+2 were used for the adhesion assay in a 96-well format. HUT 78 cells were labelled by preincubation with ECECF-AM stain (Molecular Probes). Assays were conducted in a final volume of 200 μl. The adhesion of HUT 78 cells to MAdCAM-1/mCk fusion protein bound to wells via rat anti-mCk capture antibody was assessed in the presence or absence of each compound. […] Percent inhibition and IC50 values were determined.
HUT 78 cells (a human T cell lymphoma line; American Type Culture Collection, Accession No. ATCC TIB 161) were maintained in culture for up to one month in RPMI 1640 supplemented with 10% FCS, 20 mM HEPES, and Pen-Strep (1:100). Just prior to use in adhesion assays, cells were labeled with BCECF-AM as follows: 1×10^7 cells were pelleted at 1000 rpm for 10 minutes and resuspended in 25 mL cold PBS (Phosphate Buffered Saline). The cells were pelleted again, resuspended in cold PBS, and pelleted again. The cell pellet was resuspended in 25 ml PBS and labeled with 50 μl BCECF-AM (1 μg/μL in DMSO) for 30 minutes at 37° C. (BCECF-AM; 2′,7′-bis-(2-carboxyethyl)-5-(and-6)-carboxyflourescein, acetoxymethyl ester). The labeled cells were pelleted at 700 rpm for 10 minutes, resuspended in 25 ml cold Assay Buffer and pelleted.
The assay was performed in a 96-well format. Plates were coated overnight at 4° C. with 53 μl/well of a 5 μg/mL solution of rat anti-mCk in carbonate buffer. The plates were blocked for 1 hour at 37° C. with 100 μL/well of 1% BSA in PBS. The BSA/PBS solution was removed, and 50 μL of MAdCAM-mCk supernatant was added neat to each well. The assay was conducted under conditions in which capture antibody was the limiting reagent.
Cell adhesion was measured in the presence or absence of compounds. The compounds were resuspended in 100% DMSO, subsequently diluted 1:10 in water, and finally diluted again 1:10 in the assay: 50 μL of 2X Assay Bufler, 30 μL water, 20 μL of compound were added to each well. […] Cell adhesion occurred in 30 minutes at ambient temperature, after which plates were washed with 50 mM Tris/2 mM MnCl2, pH 7.2 using an EL 404 Microplate Autowasher (BIO-TEK Instruments) using the following wash parameters: wash volume=500 μL; two wash cycles; wash depth=80; aspirating after each wash.
Additional determinations were conducted as needed, so that each IC50 was determined over a range which encompassed the IC50. Over this range, Four different concentrations were tested in duplicate.
For each compound, a ratio was determined as follows: An average of the readings from duplicate wells was divided by an average of eight control wells (adhesion in the absence of any compound). […] In addition, the concentration (μM) of compound used was plotted against the resulting ratios.
The IC50 was then determined using Kaleidograph software (Abelbeck Software). The complete procedure was repeated again using duplicate wells for each point.

[3] = HuT78, 500 μM compound, HUT 78 cells, Mn2+ activated, read-out: % Adhesion Inhibition 500 μM
[4] = HuT78, read-out: % Adhesion Inhibition 500 μM

With CC(C)C[C@H](NC(=O)c1cc2ccccc2cn1)C(=O)N[C@@H](CC(=O)O)C(=O)N[C@H](C(=O)N1CCC(=O)CC1)[C@@H](C)O [Table 7 example 2] the IC50 [1] was 940 nM.

CC(C)C[C@H](NC(=O)[C@H](CO)NC(=O)[C@@H](NC(=O)[C@H](CC(=O)O)NC(=O)[C@H](CC(C)C)NC(=O)Cc1cccc2ccccc12)[C@@H](C)O)C(N)=O [Example 21, Npa-Leu-Asp-Thr-Ser-Leu] showed an IC50 ([2]; read-out: IC50) of 548 µM and an inhibition at 500 µM [2, 3] of 39%.

Work on CC(C)C[C@H](NC(=O)[C@H](CO)NC(=O)[C@@H](NC(=O)[C@H](Cc1ccc(O)cc1)NC(=O)[C@H](CC(C)C)NC(=O)CCCc1ccc2ccc3cccc4ccc1c2c34)[C@@H](C)O)C(N)=O [Example 42, Pba-Leu-Tyr-Thr-Ser-Leu] ({Butanoyl(4-pyren-1-yl)}-LYTSL-NH2) yielded an inhibition at 500 µM [2, 4] of 100% and an IC50 ([2]; IC50 (μM)) of 30 µM.

With “NH2-Leu-Asp-Thr-Ser-Leu (H-LDTSL; not fully specified (C-terminus); printed as NH2-Leu-Asp-Thr-Ser-Leu) [Example 54]” the “% Adhesion Inhibition 500 μM” value ([2]; HUT 78 cells, Mn2+ activated) was 22%.

CC(C)C[C@H](NC(=O)[C@H](CO)NC(=O)[C@@H](NC(=O)[C@H](CC(=O)O)NC(=O)[C@H](CC(C)C)NC(=O)[C@@H]1CCCN1C(=O)CCCc1ccc2ccc3cccc4ccc1c2c34)[C@@H](C)O)C(N)=O [Example 30, Pba-Pro-Leu-Asp-Thr-Ser-Leu] ({Butanoyl(4-pyren-1-yl)}-PLDTSL-NH2) was tested, and the IC50 ([2]; IC50 (μM)) was 47 µM.

“Ac-His-Trp-Arg-Gly-Leu-Asp-Thr-Ser-Leu-Gly-Ser-Val (Ac-HWRGLDTSLGSV; not fully specified (C-terminus); printed as Ac-His-Trp-Arg-Gly-Leu-Asp-Thr-Ser-Leu-Gly-Ser-Val) [Example 61]” was tested, and the “% Adhesion Inhibition 500 μM” value ([2]; HUT 78 cells, Mn2+ activated) was 71%.

In the case of “Ac-Leu-Asp-Thr-Ser-Leu (Ac-LDTSL; not fully specified (C-terminus); printed as Ac-Leu-Asp-Thr-Ser-Leu) [Example 58]”, the “% Adhesion Inhibition 500 μM” value ([2]; HUT 78 cells, Mn2+ activated) is reported as 71%.

Work on CC(C)Cc1ccc(C(C)C(=O)N[C@@H](CC(C)C)C(=O)N[C@@H](CC(=O)O)C(=O)N[C@H](C(=O)N[C@@H](CO)C(=O)N[C@@H](CC(C)C)C(N)=O)[C@@H](C)O)cc1 (stereo partly drawn) [Example 19, Impa-Leu-Asp-Thr-Ser-Leu] yielded an IC50 ([2]; read-out: IC50) of 1140 µM and an inhibition at 500 µM [2, 3] of 44%.

CC(C)C[C@H](NC(=O)[C@H](CO)NC(=O)[C@@H](NC(=O)[C@H](CC(=O)O)NC(=O)[C@H](CC(C)C)NC(=O)Cc1ccccc1)[C@@H](C)O)C(N)=O [Example 26, Pha-Leu-Asp-Thr-Ser-Leu] was tested, and the inhibition at 500 µM [2, 4] was 38% and the IC50 ([2]; IC50 (μM)) was 2130 µM.

Work on CC(=O)N[C@@H](CCCNC(=N)N)C(=O)NCC(=O)N[C@@H](CC(C)C)C(=O)N[C@@H](CC(=O)O)C(=O)N[C@H](C(=O)N[C@@H](CO)C(=O)N[C@@H](CC(C)C)C(N)=O)[C@@H](C)O [Example 8, Ac-Arg-Gly-Leu-Asp-Thr-Ser-Leu] (Ac-RGLDTSL-NH2) yielded an inhibition at 500 µM [2, 3] of 35%.

With CC(C)C[C@H](NC(=O)[C@H](CO)NC(=O)[C@@H](NC(=O)[C@H](CC(=O)O)NC(=O)[C@H](CC(C)C)NC(=O)CCCCCc1ccccc1)[C@@H](C)O)C(N)=O [Example 18, Phx-Leu-Asp-Thr-Ser-Leu] the IC50 ([2]; read-out: IC50) was 818 µM and the inhibition at 500 µM [2, 3] was 32%.

CC(C)C[C@H](NC(=O)[C@H](CO)NC(=O)[C@@H](NC(=O)[C@H](CC(=O)O)NC(=O)[C@H](CC(C)C)NC(=O)C(c1ccccc1)c1ccccc1)[C@@H](C)O)C(N)=O [Example 31, Dpa-Leu-Asp-Thr-Ser-Leu] was tested, and the IC50 ([2]; read-out: IC50) was 11 µM.

In the case of CC(=O)N(C)[C@@H](CC(C)C)C(=O)N[C@@H](CC(=O)O)C(=O)N[C@H](C(=O)N[C@@H](CO)C(=O)N[C@@H](CC(C)C)C(N)=O)[C@@H](C)O [Example 49, Ac-MeLeu-Asp-Thr-Ser-Leu], the IC50 ([2]; read-out: IC50) is reported as 150 µM.

Work on CC(=O)N[C@H]1CSSC[C@@H](C(N)=O)NC(=O)[C@H](CC(C)C)NC(=O)[C@H](CO)NC(=O)[C@H]([C@@H](C)O)NC(=O)[C@H](CC(=O)O)NC(=O)[C@H](CC(C)C)NC1=O [Example 4, Ac-Cys*-Leu-Asp-Thr-Ser-Leu-Cys*] (Ac-CLDTSLC-NH2; disulfide 1-7) yielded an inhibition at 250 µM ([2]; HuT78, @250 μM compound, HUT 78 cells, read-out: % Adhesion Inhibition) of 51%.

Work on CC(C)C[C@H](NC(=O)[C@H](CO)NC(=O)[C@@H](NC(=O)[C@H](CC(=O)O)NC(=O)[C@H](CC(C)C)NC(=O)c1ccc2ccc3cccc4ccc1c2c34)[C@@H](C)O)C(N)=O [Example 34, Pca-Leu-Asp-Thr-Ser-Leu] yielded an IC50 ([2]; IC50 (μM)) of 2.1 µM.

“MeLeu-Leu-Asp-Thr-Ser-Leu ([NMeL]LDTSL) [Example 27]” was tested, and the “% Adhesion Inhibition 500 μM” value ([2]; HUT 78 cells, Mn2+ activated) was 54% and the IC50 ([2]; read-out: IC50) was 256 µM.
